The numbers were not newly measured in paper PMC2074382 (British Journal of Cancer, 1996), which cites them from elsewhere.

Details of data set [1]: method as in Rowinsky et al., 1992; Verweij et al., 1993. As to conditions: daily x 5 schedule; ref Rowinsky et al., 1992; Verweij et al., 1993; cited from earlier work.
On the set-up of data set [2]: method as in PMID 5081595, PMID 8137244. As to conditions: in vitro and in vivo pharmacology; cited from earlier work.
For data set [3] the following is noted: clinical; cited from earlier work.

Turning to `CC[C@@]1(O)C(=O)OCc2c1cc1n(c2=O)Cc2cc3c(CN(C)C)c(O)ccc3nc2-1` [topotecan], the dose-limiting toxicity entry in data set [1] is “myelosuppression”. The “potency relative to GI147211 (fold less potent)” value in data set [2] is given as 2.2 fold.

In the case of `CCc1c2c(nc3ccc(OC(=O)N4CCC(N5CCCCC5)CC4)cc13)-c1cc3c(c(=O)n1C2)COC(=O)[C@]3(O)CC` [Irinotecan], in data set [3], the induced toxicity result is given as “neutropenia in addition to diarrhoea”.
